From patent US5830855A, “Lipodepsipeptides as antifungal and fungicidal agents” (priority 1996, dated 1998)
Values after ≈ are worked out from the molar mass of the structure shown.

Assays:
fungal isolates = assay: Fungicidal activity (MFC), fungal isolates overall; format: cell-based, fungi; conditions: Table 2 organisms
Method: (§1) Medium: Liquid RPMI 1640 (RPMI) medium with L-glutamine and without sodium bicarbonate (Sigma Chemical Co., R-6504; St. Louis, Mo.) buffered with 0.165M MOPS (34.54 g/liter) was used for in vitro antifungal tests. The medium was adjusted to pH 7.0 with 10M NaOH and filter sterilized.
(§2) Lipodepsipeptide Dilutions: All stock drug solution concentrations were at least 10-fold higher than the highest concentration tested. AmB, ketoconazole, and the test compounds (SR-E, ST-B, and SS-A) were dissolved in sterile distilled water, 0.2N HCl, and 0.001N HCl, respectively. Each stock solution was diluted to 2× the highest concentration of drug tested with RPMI. Two-fold dilutions were made with RPMI medium.
(§3) Preparation of Inoculum Suspensions: On Sabouraud dextose agar (SDA; BBL, Becton and Dickinson and Co., Cockeysville, Md.) all isolates were subcultured at least twice before use to ensure purity and viability. […] The turbidity of each mixed suspension was measured at 530 nm and adjusted to 1×10^6 to 5×10^6 CFU/ml by the NCCLS spectrophotometric method described by National Committee for Clinical Laboratory Standards. […]
(§4) Aspergillus fumigatus and Mucor spp. were grown for 1 wk at 35° C. […] The stock suspensions of all filamentous fungi were measured at 530 nm and adjusted to 85-87% transmission. The concentration (1×10^6 to 5×10^6 CFU/ml) was determined by hemacytometer count or plate count on SDA. […]

Microsporum spp. [1] = assay: Broth microdilution MIC; format: cell-based; conditions: Table 1 (MICs), 2 isolates, 7 days
Method: as §1, §2
(§5) Preparation of Inoculum Suspensions: On Sabouraud dextose agar (SDA; BBL, Becton and Dickinson and Co., Cockeysville, Md.) all isolates were subcultured at least twice before use to ensure purity and viability. Candida spp. and Saccharomyces cerevisiae were grown for 24 hr at 35° C. Isolates of Cryptococcus neoformans were grown for 48 hr at 35° C. Yeast cells from at least five 1-mm-diameter colonies were suspended in 5 ml of sterile 0.85% saline. The resulting suspension was vortexed for 15 sec. The turbidity of each mixed suspension was measured at 530 nm and adjusted to 1×10^6 to 5×10^6 CFU/ml by the NCCLS spectrophotometric method described by National Committee for Clinical Laboratory Standards. 1992. Reference method for broth dilution antifungal susceptibility testing of yeasts; proposed standard, NCCLS document M27-P (ISBN 1-56238-186-5). NCCLS, Villanova. The final transmission of each yeast suspension ranged from 85-87%.
(§6) Aspergillus fumigatus and Mucor spp. were grown for 1 wk at 35° C. The dermatophytes, Microsporum spp. and Trichophyton spp., were grown for two wk at 30° C. Fungal spores were washed from the plates of all good spore formers (A. fumigatus, Mucor spp., Microsporum canis and Trichophyton spp.) by placing 5 ml of 0.85% saline with 0.2% Tween 80 on the plates and mixing with an inoculating loop. The spore/mycelium suspension was drawn off with a pipette and allowed to settle for at least 5 min. For the poor spore-forming Microsporum audouinii, the procedure was the same except the spore/mycelial suspension was homogenized with a ground glass tissue homogenizer and then allowed to settle for at least 5 min. A small amount of the supernatant was transferred to 5 ml of sterile saline and vortexed. The stock suspensions of all filamentous fungi were measured at 530 nm and adjusted to 85-87% transmission. The concentration (1×10^6 to 5×10^6 CFU/ml) was determined by hemacytometer count or plate count on SDA. All stock suspensions were diluted 1000-fold with RPMI, or 2× the final desired test inocula. The 2× inoculum was diluted 1:1 when the wells were inoculated, and the desired inoculum size was achieved.
(§7) Broth Microdilution Test: Broth microdilution tests were performed using sterile, disposable, multiwell microdilution plates (96 round U-bottom wells) (Falcon 3077; Becton and Dickinson Labware, Lincoln Park, N.J.). The drugs (2× concentrations) were dispensed into the wells of rows number 1 to 10 of the microdilution plates in 100 μl volumes from highest drug concentration to lowest drug concentration. Each well was inoculated with 100 μl of the corresponding 2× concentrated fungal suspension. The wells of row 11 contained the inoculum with drug-free media as a positive growth control and the wells of row 12 contained uninoculated-drug-free medium as a sterility control.
(§8) Incubation and Scoring of MIC: All cultures were incubated without shaking at the temperature used during subculture. Incubation times were 48 hr for Candida spp., S. cerevisiae, A. fumigatus, and Mucor spp; 72 hr for C. neoformans; and 7 days for Microsporum and Trichophyton spp. […]

Saccharomyces cerevisiae [2] = assay: Broth microdilution MIC; format: cell-based; conditions: Table 1 (MICs), 1 strain tested more than once (control ATCC 36375), 48 hr
Method: as §1, §2, §5, §6, §7, §8

Candida krusei [3] = assay: Broth microdilution MIC; format: cell-based; conditions: Table 1 (MICs), 2 isolates, 48 hr
Method: as §1, §2, §5, §6, §7, §8

Mucor spp. [4] = assay: Broth microdilution MIC; format: cell-based; conditions: Table 1 (MICs), 5 isolates, 48 hr
Method: as §1, §2, §5, §6, §7, §8

Candida albicans = assay: Broth microdilution MIC; format: cell-based; conditions: Table 1 (MICs); Candida albicans, 20 isolates; RPMI pH 7.0, 48 hr; Ktz read at score 2, others at score 0
Method: as §1, §2, §5, §6, §7, §8

Candida kefyr [5] = assay: Broth microdilution MIC; format: cell-based; conditions: Table 1 (MICs), 1 isolate, 48 hr
Method: as §1, §2, §5, §6, §7, §8

Cryptococcus neoformans [6] = assay: Broth microdilution MIC; format: cell-based
Method: as §1, §2, §5, §6, §7, §8

Trichophyton spp. [7] = assay: Broth microdilution MIC; format: cell-based; conditions: Table 1 (MICs), 3 isolates, 7 days
Method: as §1, §2, §5, §6, §7, §8

Candida rugosa [8] = assay: Broth microdilution MIC; format: cell-based
Method: as §1, §2, §5, §6, §7, §8

Candida parapsilosis [9] = assay: Broth microdilution MIC; format: cell-based; conditions: Table 1 (MICs), 2 isolates, 48 hr
Method: as §1, §2, §5, §6, §7, §8

Aspergillus fumigatus [10] = assay: Broth microdilution MIC; format: cell-based; conditions: Table 1 (MICs), 16 isolates, 48 hr
Method: as §1, §2, §5, §6, §7, §8

Candida lusitaniae [11] = assay: Broth microdilution MIC; format: cell-based; conditions: Table 1 (MICs), 2 isolates, 48 hr
Method: as §1, §2, §5, §6, §7, §8

Candida tropicalis [12] = assay: Broth microdilution MIC; format: cell-based
Method: as §1, §2, §5, §6, §7, §8

[13] = tested on: clinical isolates (fungi); assay: Broth microdilution MIC, fungal isolates overall; format: cell-based; conditions: range over all clinical isolates
Text: Most of the fungal strains used in the tests were clinical isolates obtained from the University of Texas Health Science Center at San Antonio Fungus Testing Laboratory (San Antonio, Tex.) and the remaining isolates were ATCC strains.
as §1
Lipodepsipeptide Dilutions: All stock drug solution concentrations were at least 10-fold higher than the highest concentration tested. […]
as §3, §4

Microsporum spp. [14] = assay: Minimum Fungicidal Concentration (MFC); format: cell-based; conditions: Table 2, 2 isolates, 7 d
Method: as §1, §2, §5, §6, §7, §8

Saccharomyces cerevisiae [15] = assay: Minimum Fungicidal Concentration (MFC); format: cell-based; conditions: Table 2, 1 strain tested more than once, 24 hr
Method: as §1, §2, §5, §6, §7, §8

Candida krusei [16] = assay: Minimum Fungicidal Concentration (MFC); format: cell-based; conditions: Table 2, 2 isolates, 24 hr
Method: as §1, §2, §5, §6, §7, §8

Mucor spp. [17] = assay: Minimum Fungicidal Concentration (MFC); format: cell-based; conditions: Table 2, 5 isolates, 24 hr
Method: as §1, §2, §5, §6, §7, §8

Candida kefyr [18] = assay: Minimum Fungicidal Concentration (MFC); format: cell-based; conditions: Table 2, 1 isolate, 24 hr
Method: as §1, §2, §5, §6, §7, §8

Cryptococcus neoformans [19] = assay: Minimum Fungicidal Concentration (MFC); format: cell-based; conditions: Table 2, 14 isolates, 48 hr
Method: as §1, §2, §5, §6, §7, §8

Trichophyton spp. [20] = assay: Minimum Fungicidal Concentration (MFC); format: cell-based; conditions: Table 2, 3 isolates, 7 d
Method: as §1, §2, §5, §6, §7, §8

Candida rugosa [21] = assay: Minimum Fungicidal Concentration (MFC); format: cell-based; conditions: Table 2, 2 isolates, 24 hr
Method: as §1, §2, §5, §6, §7, §8

Candida parapsilosis [22] = assay: Minimum Fungicidal Concentration (MFC); format: cell-based; conditions: Table 2, 2 isolates, 24 hr
Method: as §1, §2, §5, §6, §7, §8

Aspergillus fumigatus [23] = assay: Minimum Fungicidal Concentration (MFC); format: cell-based; conditions: Table 2, 16 isolates, 48 hr
Method: as §1, §2, §5, §6, §7, §8

Candida lusitaniae [24] = assay: Minimum Fungicidal Concentration (MFC); format: cell-based; conditions: Table 2, 2 isolates, 24 hr
Method: as §1, §2, §5, §6, §7, §8

Candida tropicalis [25] = assay: Minimum Fungicidal Concentration (MFC); format: cell-based; conditions: Table 2, 2 isolates, 24 hr
Method: as §1, §2, §5, §6, §7, §8

`C[C@@H]1[C@H](O)[C@@H](C)/C=C/C=C/C=C/C=C/C=C/C=C/C=C/[C@H](O[C@@H]2O[C@H](C)[C@@H](O)[C@H](N)[C@@H]2O)C[C@@H]2O[C@](O)(C[C@@H](O)C[C@@H](O)[C@H](O)CC[C@@H](O)C[C@@H](O)CC(=O)O[C@H]1C)C[C@H](O)[C@H]2C(=O)O` [AmB, amphotericin B, reference compound] was tested, and the “fungicidal activity” value (fungal isolates) was “fungicidal activity against most of the strains tested”, the MIC range (Microsporum spp. [1]) was 0.04 to 0.3 mg/L and the “MFC (μg/ml) range” value (Saccharomyces cerevisiae [2]) was 0.3 µg/mL (≈ 0.325 µM). For the same compound, the “MIC (μg/ml) range” value (Candida krusei [3]) was 0.3 to 0.6 µg/mL, the MIC range (Mucor spp. [4]) was 0.02 to 0.15 mg/L and the MIC range (Candida albicans) was 0.04 to 0.3 mg/L. For the same compound, the “MIC (μg/ml) range” value (Candida kefyr [5]) was 0.3 µg/mL (≈ 0.325 µM), the MIC range (Cryptococcus neoformans [6]; Table 1 (MICs), Cryptococcus neoformans, 14 isolates, 72 hr) was 0.08 to 1.25 mg/L and the MIC, one strain of C. neoformans (Cryptococcus neoformans [6]; one strain of C. neoformans, very sensitive to ST-B, somewhat resistant to AmB) was 1.25 mg/L. The MIC range (Trichophyton spp. [7]) was 0.3 to 0.6 mg/L, the MIC range (Candida rugosa [8]; Table 1 (MICs), Candida rugosa, 2 isolates, 48 hr) was 0.3 to 1.25 mg/L and the “susceptibility of one strain of C. rugosa” value (Candida rugosa [8]; one strain of C. rugosa (AmB-resistant)) was “resistance”. For the same compound, the MIC range (Candida parapsilosis [9]) was 0.6 mg/L (≈ 0.649 µM), the MIC range (Aspergillus fumigatus [10]) was 0.15 to 1.25 mg/L and the MIC range (Candida lusitaniae [11]) was 0.3 mg/L (≈ 0.325 µM). For the same compound, the “MIC (μg/ml) range” value (Candida tropicalis [12]; Table 1 (MICs), Candida tropicalis, 2 isolates, 48 hr) was 0.3 to 1.25 µg/mL, the “susceptibility of one strain of C. tropicalis” value (Candida tropicalis [12]; one strain of C. tropicalis) was “resistance” and the “susceptibility (MIC) of the clinical isolates” value [13] was 0.02-1.25 g/ml. The “MFC (μg/ml) range” value (Microsporum spp. [14]) was 0.08 to 0.3 µg/mL, the “MFC (μg/ml) range” value (Saccharomyces cerevisiae [15]) was 1.25 µg/mL (≈ 1.35 µM) and the “MFC (μg/ml) range” value (Candida krusei [16]) was 0.6 µg/mL (≈ 0.649 µM). The “MFC (μg/ml) range” value (Mucor spp. [17]) was at most 0.02 to 0.3 µg/mL, the “MFC (μg/ml) range” value (Candida kefyr [18]) was 0.3 µg/mL (≈ 0.325 µM) and the “MFC (μg/ml) range” value (Cryptococcus neoformans [19]) was 0.15 to 1.25 µg/mL. For the same compound, the “MFC (μg/ml) range” value (Trichophyton spp. [20]) was 0.3 to 0.6 µg/mL, the “MFC (μg/ml) range” value (Candida rugosa [21]) was 0.6 to 2.5 µg/mL and the “MFC (μg/ml) range” value (Candida parapsilosis [22]) was 1.25 µg/mL (≈ 1.35 µM). The “MFC (μg/ml) range” value (Aspergillus fumigatus [23]) was 0.6 to 2.5 µg/mL, the “MFC (μg/ml) range” value (Candida lusitaniae [24]) was 0.6 µg/mL (≈ 0.649 µM) and the “MFC (μg/ml) range” value (Candida tropicalis [25]) was 0.6 to 1.25 µg/mL.
